Calls of active or inactive are those of the source. The rule behind the calls is not given here.
How the values were obtained:
[1] = AUC(0 to t) in Sprague-Dawley rat at 3 mg/kg, po measured upto 24 hrs by LC-MS analysis; format: ADME, organism-based; set-up: route oral, dose 3 mg/kg, time <=24; settings: in vivo
[2] = Tmax in Sprague-Dawley rat at 3 mg/kg, po measured upto 24 hrs by LC-MS analysis; format: ADME, organism-based; settings: in vivo
[3] = Cmax in ICR mouse at 3 mg/kg, po measured upto 24 hrs by LC-MS analysis; format: ADME, organism-based; set-up: route oral, dose 3 mg/kg, time <=24; settings: in vivo
[4] = AUC(0 to t) in ICR mouse at 1 mg/kg, iv measured upto 24 hrs by LC-MS analysis; format: ADME, organism-based; set-up: route intravenous, dose 1 mg/kg, time <=24; settings: in vivo
[5] = Half life in ICR mouse at 1 mg/kg, iv measured upto 24 hrs by LC-MS analysis; format: ADME, organism-based; settings: in vivo
[6] = Clearance in ICR mouse at 1 mg/kg, iv measured upto 24 hrs by LC-MS analysis; format: ADME, organism-based; settings: in vivo
[7] = biological target: Receptor-type tyrosine-protein kinase FLT3 (Homo sapiens, UniProt P36888); assay: Inhibition of recombinant human FLT3 (564 to end residues) using EAIYAAPFAKKK as substrate incubated for 40 mins in presence of [gamma-33ATP] by scintillation counting based radiometry assay
[8] = biological target: Epidermal growth factor receptor (Homo sapiens, UniProt P00533); assay: Inhibition of recombinant human EGFR (696 to end residues) using poly(Glu, Tyr) 4:1 as substrate incubated for 40 mins in presence of [gamma-33ATP] by scintillation counting based radiometry assay
[9] = biological target: Proto-oncogene tyrosine-protein kinase Src (Homo sapiens, UniProt P12931); assay: Inhibition of recombinant human C-Src using KVEKIGEGTYGVVYK as substrate incubated 40 mins in presence of [gamma-33ATP] by scintillation counting based radiometry assay
[10] = biological target: Mitogen-activated protein kinase kinase kinase kinase 2 (Homo sapiens, UniProt Q12851); assay: Inhibition of recombinant human GCK (1 to 473 residues) using myelin basic protein as substrate incubated for 40 mins in presence of [gamma-33ATP] by scintillation counting based radiometry assay
[11] = biological target: Proto-oncogene tyrosine-protein kinase receptor Ret (Homo sapiens, UniProt P07949); assay: Inhibition of recombinant human Ret (658 to end residues) using KKKSPGEYVNIEFG as substrate incubated for 40 mins in presence of [gamma33P]ATP by scintillation counting based radiometry assay
[12] = biological target: Mitogen-activated protein kinase kinase kinase 20 (Homo sapiens, UniProt Q9NYL2); assay: Inhibition of recombinant full-length human ZAK using MBP as substrate incubated for 40 mins in presence of [gamma33P]ATP by scintillation counting based radiometry assay
[13] = biological target: Calcium/calmodulin-dependent protein kinase type 1 (Homo sapiens, UniProt Q14012); assay: Inhibition of recombinant human CaMK1 (2 to end residues) using […] as substrate incubated for 40 mins in presence of [gamma-33ATP] by scintillation counting based radiometry assay
CDK4/Cyclin D3 = CDK4/Cyclin D3 (Homo sapiens, UniProt P11802); assay: Inhibition of recombinant full length human CDK4/CyclinD3 using Rb fragment as substrate incubated for 40 mins in presence of [gamma-33ATP] by scintillation counting based radiometry assay; format: protein-complex assay
[14] = biological target: PI3-kinase p110-delta/p85-alpha (Homo sapiens, UniProt O00329); assay: Inhibition of recombinant human full length PI3K p110delta/p85a using phosphatidylinositol-4, 5-bisphosphate as substrate incubated for 40 mins in presence of [gamma33P]ATP by scintillation counting based radiometry assay; format: protein-complex assay
[15] = biological target: T1, Tyrosine-protein kinase receptor UFO (Mus musculus) (UniProt Q00993); assay: Inhibition of AXL in mouse BaF3/TEL-AXL cells assessed as reduction in Gas6-induced phosphorylation of AKT at 0.5 to 50 nM preincubated for 2 hrs followed by Gas6 stimulation for 15 mins by Western blotting analysis; format: cell-based; settings: dose 0.5-50 nM
T1 sequence (whole entry): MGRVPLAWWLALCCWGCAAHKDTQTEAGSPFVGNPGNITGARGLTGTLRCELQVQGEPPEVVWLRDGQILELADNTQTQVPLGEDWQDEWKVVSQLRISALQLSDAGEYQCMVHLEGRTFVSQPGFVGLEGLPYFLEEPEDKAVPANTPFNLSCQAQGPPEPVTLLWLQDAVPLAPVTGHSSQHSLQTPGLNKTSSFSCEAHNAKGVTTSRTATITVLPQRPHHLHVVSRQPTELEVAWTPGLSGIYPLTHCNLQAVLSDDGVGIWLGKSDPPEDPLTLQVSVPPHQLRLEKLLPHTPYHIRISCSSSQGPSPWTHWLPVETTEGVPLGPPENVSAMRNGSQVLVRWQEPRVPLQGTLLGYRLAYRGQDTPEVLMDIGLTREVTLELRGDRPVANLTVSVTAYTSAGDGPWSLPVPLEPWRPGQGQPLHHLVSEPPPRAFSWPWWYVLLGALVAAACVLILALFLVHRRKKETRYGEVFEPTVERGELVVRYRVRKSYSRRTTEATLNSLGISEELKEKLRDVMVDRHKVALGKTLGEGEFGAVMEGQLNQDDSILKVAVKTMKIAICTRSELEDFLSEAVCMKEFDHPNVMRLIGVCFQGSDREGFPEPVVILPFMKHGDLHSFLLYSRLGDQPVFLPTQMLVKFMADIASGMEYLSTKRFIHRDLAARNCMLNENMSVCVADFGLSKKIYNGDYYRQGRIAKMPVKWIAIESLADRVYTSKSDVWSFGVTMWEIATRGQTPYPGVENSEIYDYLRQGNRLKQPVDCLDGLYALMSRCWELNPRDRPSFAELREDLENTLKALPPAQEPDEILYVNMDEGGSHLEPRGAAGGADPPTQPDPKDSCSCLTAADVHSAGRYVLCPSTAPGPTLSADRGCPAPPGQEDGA

[16] = biological target: Hepatocyte growth factor receptor (Homo sapiens, UniProt P08581); assay: Inhibition of MET signaling in human EBC1 cells assessed as reduction in phosphorylation of MET after 2 hrs by Western blotting analysis; format: cell-based; settings: EBC-1, dose 10-100 nM
MDA-MB-231 = assay: Antiproliferative activity against human MDA-MB-231 cells incubated for 72 hrs by SRB or CCK8 assay; format: functional, cell-based; settings: MDA-MB-231, 72 h
HT-29 = assay: Antiproliferative activity against human HT-29 cells incubated for 72 hrs by SRB or CCK8 assay; format: functional, cell-based; settings: HT-29, 72 h
KMS-11 = assay: Antiproliferative activity against human KMS-11 cells incubated for 72 hrs by SRB or CCK8 assay; format: functional, cell-based; settings: KMS-11, 72 h
SNU-449 = assay: Inhibition of Gas6-stimulated cell invasion in human SNU-449 cells at […] after 24 hrs by crystal violet staining based microscopic analysis; format: functional; settings: dose lower 5.0 µM
BaF3 [17] = assay: Antitumor activity against mouse BaF3/TEL-AXL cells xenografted in BALB/c nude mouse assessed as tumor growth inhibition at 1 mg/kg, po administered once daily for 14 days by caliper method; format: functional; settings: 336 h, time 14 day, read-out: TGI
BaF3 [18] = assay: Antitumor activity against mouse BaF3/TEL-AXL cells xenografted in BALB/c nude mouse assessed as tumor growth inhibition at 25 mg/kg, po administered once daily for 14 days by caliper method; format: functional; settings: 336 h, time 14 day, read-out: TGI

Proto-oncogene tyrosine-protein kinase receptor Ret, sequence (P07949 whole entry): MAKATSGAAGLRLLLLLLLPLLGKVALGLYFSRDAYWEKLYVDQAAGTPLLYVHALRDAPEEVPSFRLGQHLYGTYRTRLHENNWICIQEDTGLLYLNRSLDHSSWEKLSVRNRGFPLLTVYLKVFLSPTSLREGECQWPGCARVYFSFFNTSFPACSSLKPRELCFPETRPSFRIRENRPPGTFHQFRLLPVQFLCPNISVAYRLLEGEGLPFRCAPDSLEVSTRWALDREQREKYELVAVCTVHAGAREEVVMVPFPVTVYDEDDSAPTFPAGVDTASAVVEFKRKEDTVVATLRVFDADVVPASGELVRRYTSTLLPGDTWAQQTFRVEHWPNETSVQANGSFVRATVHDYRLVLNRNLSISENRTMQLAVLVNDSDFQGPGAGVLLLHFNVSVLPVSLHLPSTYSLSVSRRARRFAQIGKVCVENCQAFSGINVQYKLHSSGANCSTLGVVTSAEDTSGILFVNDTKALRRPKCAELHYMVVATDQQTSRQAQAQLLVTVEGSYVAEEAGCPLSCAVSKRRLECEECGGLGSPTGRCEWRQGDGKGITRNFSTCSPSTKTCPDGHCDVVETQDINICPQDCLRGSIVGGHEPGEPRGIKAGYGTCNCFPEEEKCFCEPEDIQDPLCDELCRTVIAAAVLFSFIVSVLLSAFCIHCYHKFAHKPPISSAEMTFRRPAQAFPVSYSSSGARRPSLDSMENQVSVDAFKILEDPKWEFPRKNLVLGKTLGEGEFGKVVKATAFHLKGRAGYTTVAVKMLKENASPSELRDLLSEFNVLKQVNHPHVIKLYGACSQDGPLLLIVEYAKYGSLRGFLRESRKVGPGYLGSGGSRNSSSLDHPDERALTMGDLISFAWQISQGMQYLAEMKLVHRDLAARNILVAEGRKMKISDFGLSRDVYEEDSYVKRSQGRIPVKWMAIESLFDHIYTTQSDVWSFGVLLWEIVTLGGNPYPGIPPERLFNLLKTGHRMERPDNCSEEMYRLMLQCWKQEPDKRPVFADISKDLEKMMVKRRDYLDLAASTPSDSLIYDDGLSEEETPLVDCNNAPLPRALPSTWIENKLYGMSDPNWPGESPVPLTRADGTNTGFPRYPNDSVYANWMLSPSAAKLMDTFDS
PI3-kinase p110-delta/p85-alpha, sequence (P27986 whole entry): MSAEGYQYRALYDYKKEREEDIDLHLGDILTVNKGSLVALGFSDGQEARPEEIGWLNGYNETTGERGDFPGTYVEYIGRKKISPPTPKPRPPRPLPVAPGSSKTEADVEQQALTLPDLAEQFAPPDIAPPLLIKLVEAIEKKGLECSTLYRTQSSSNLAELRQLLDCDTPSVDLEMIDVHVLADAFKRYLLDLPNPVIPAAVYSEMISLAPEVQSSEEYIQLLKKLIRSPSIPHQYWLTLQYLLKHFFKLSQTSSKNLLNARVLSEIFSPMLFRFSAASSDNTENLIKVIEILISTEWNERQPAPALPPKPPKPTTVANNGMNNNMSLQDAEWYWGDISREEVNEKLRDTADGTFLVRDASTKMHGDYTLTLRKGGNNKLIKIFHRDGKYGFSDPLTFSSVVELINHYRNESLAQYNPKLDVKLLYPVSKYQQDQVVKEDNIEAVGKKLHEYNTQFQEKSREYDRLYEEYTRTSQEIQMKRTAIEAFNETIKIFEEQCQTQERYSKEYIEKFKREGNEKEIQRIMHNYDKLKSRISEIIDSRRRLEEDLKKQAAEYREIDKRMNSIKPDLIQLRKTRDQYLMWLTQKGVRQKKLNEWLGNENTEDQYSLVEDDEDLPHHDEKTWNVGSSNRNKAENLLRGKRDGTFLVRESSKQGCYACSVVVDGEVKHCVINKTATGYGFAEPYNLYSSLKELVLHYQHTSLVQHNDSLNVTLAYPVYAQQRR
PI3-kinase p110-delta/p85-alpha, sequence (O00329 whole entry): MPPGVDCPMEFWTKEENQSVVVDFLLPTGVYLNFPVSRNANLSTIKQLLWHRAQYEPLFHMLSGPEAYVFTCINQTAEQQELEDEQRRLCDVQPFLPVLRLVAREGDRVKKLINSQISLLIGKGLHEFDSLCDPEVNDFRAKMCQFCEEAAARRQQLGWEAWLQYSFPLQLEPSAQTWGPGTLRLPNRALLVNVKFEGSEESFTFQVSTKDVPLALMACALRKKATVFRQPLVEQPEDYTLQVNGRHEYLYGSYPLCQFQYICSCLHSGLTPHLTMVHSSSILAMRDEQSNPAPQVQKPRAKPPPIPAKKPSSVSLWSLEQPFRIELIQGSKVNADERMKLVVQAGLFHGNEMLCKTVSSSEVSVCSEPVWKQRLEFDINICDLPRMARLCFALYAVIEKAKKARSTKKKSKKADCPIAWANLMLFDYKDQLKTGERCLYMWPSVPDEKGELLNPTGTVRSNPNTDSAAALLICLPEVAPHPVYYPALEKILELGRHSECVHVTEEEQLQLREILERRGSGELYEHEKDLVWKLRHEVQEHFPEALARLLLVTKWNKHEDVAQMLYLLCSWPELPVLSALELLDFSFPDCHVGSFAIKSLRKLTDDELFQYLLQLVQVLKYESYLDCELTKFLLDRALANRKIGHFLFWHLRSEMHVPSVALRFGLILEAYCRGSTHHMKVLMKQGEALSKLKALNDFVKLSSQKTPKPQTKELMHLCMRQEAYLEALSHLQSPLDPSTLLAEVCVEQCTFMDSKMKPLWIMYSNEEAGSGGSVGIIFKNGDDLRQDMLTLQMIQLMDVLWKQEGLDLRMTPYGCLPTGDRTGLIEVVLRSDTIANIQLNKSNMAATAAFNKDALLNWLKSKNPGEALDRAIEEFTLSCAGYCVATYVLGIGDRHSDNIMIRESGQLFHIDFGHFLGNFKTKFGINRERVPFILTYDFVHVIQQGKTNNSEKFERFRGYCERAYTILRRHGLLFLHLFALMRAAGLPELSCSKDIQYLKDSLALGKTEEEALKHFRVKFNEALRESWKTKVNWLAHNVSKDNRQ
CDK4/Cyclin D3, sequence (P11802 whole entry, the tested form may be a part): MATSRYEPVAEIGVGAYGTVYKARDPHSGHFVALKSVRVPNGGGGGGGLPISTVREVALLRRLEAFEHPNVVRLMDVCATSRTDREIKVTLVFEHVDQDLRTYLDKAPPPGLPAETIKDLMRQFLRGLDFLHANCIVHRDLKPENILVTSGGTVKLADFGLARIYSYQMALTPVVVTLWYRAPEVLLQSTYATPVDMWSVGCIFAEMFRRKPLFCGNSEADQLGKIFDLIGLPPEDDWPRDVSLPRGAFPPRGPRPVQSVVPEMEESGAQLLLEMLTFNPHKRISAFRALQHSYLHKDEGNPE
CDK4/Cyclin D3, sequence (P30281 whole entry, further chain, the tested form may be a part): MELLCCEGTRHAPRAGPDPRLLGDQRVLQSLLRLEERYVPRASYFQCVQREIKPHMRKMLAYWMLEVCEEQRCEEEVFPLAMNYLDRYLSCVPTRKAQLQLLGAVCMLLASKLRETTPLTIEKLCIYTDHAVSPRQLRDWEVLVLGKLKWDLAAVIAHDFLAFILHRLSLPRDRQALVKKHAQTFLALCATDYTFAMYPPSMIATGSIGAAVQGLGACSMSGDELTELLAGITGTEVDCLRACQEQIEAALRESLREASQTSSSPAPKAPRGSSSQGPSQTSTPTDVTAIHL
Calcium/calmodulin-dependent protein kinase type 1, sequence (Q14012 whole entry, the tested form may be a part): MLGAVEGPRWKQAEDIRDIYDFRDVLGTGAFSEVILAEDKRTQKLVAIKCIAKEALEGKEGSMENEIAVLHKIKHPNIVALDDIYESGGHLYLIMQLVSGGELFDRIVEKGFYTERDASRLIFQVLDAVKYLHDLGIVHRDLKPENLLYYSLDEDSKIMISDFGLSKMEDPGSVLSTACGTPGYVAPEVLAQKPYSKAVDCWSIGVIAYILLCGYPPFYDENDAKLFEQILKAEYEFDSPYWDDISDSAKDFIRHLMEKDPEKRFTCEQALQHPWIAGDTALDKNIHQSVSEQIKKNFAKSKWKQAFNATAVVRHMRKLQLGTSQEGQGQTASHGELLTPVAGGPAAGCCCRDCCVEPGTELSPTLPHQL
Proto-oncogene tyrosine-protein kinase Src, sequence (P12931 2-536 limits assumed): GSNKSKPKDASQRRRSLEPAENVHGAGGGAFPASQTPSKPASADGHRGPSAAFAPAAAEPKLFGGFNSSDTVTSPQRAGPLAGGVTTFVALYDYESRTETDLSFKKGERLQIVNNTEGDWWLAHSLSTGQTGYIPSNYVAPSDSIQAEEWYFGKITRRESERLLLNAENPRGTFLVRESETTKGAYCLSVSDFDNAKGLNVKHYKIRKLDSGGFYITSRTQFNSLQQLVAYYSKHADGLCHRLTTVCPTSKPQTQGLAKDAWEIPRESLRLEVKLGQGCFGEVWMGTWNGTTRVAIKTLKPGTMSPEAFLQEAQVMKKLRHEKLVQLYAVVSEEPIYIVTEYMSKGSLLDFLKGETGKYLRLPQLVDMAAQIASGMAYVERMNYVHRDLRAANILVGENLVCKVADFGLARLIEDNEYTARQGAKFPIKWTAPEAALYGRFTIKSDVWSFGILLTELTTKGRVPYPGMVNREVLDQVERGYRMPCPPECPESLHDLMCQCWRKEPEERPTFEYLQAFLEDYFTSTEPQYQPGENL

AUC(0-t) at 24 h [1]: 32600 ng·h/mL | Tmax [2]: 1.17 h | Cmax [3]: 2990 ng/mL | AUC(0-t) at 24 h [4]: 7010 ng·h/mL | half-life [5]: 5.57 h | clearance [6]: 2.29 mL/min/kg | IC50 [7]: > 1000 nM | IC50 [8]: > 1000 nM | IC50 [9]: > 1000 nM | IC50 [10]: > 1000 nM | IC50 [11]: > 1000 nM | IC50 [12]: > 100 nM | IC50 [13]: > 1000 nM | IC50 (CDK4/Cyclin D3): > 1000 nM | IC50 [14]: > 1000 nM | inhibition [15]: Active | inhibition [16]: Dose-Dependent Effect | IC50 (MDA-MB-231): > 10000 nM | IC50 (HT-29): > 10000 nM
SMILES: CC(C)n1cc(C(=O)Nc2ccc(Oc3ccnc(NC(=O)C4CC4)c3)c(F)c2)c(=O)n(-c2ccc(F)cc2)c1=O
IC50 (KMS-11): > 10000 nM | inhibition (SNU-449): Active | inhibition in vivo at 1 mg/kg (BaF3 [17]): 90.9% | inhibition in vivo at 25 mg/kg (BaF3 [18]): 106%
